Consider two compounds from patent US11376298B2, “Composition comprising natural substances having healing, repellent and biocidal properties for the treatment and the cure of external wounds” (priority 2004, dated 2022).

For data set [1] the following is noted: EPA (USA) and EEA (UE); cited from earlier work.
The test system of the next data set is cheloid. The data set is described as follows: Cheloid therapy on wounds in the distal part of horse's limb. The data set is classed as in vivo, horses. Particulars: composition versus Salicylic acid therapy. From the text:
Cheloid is a disturbance of the granulation tissue due to a hyperproliferation of the fibroblasts. These cells stop the mitogenic activity when enough extracellular matrix fills the wound crater. Collagen fibrils of the matrix start to retract anchoring the wounds edges to fibroblasts. When the collagen fibrils start to retract, fibroblasts stop to secrete the matrix (antimitogenic effect). Most of them undergo apoptosis (cell death without inducing an inflammatory reaction) and quiescence (sleeping fibroblasts), while only a small part undergo the transformation into myofibroblasts (which play a role in the last phases of the wound healing). Newly formed capillary vessels are absorbed and disappear in synchrony with the fibroblasts. Keratinocytes on the top of the healed area start to re-epithelialize the area and the process is complete: In horse, researchers have identified two orders of problems responsible for the high incidence of cheloid pathology: 1) exaggerated tension stimuli at the levels of the distal part of the horses legs, due too scarcity of muscle mass and hypodermal fat and 2) slow capacity of the keratinocytes to obtain the re-epithelialization of the granulated area maybe due to a scarcity of the signals responsible for the antimitogenic effects on fibroblasts. […]

Regarding `C/C=C(\C)C(=O)O[C@H]1C[C@@H](OC(C)=O)[C@@]2(C(=O)OC)CO[C@H]3[C@@H](O)[C@@](C)([C@]45O[C@@]4(C)[C@@H]4C[C@H]5O[C@@H]5OC=C[C@@]54O)[C@H]4[C@]1(CO[C@]4(O)C(=O)OC)[C@@H]32` [Azadirachtin A], the class of toxicity result in data set [1] is “IVth”.

Regarding `O=C(O)c1ccccc1O` [Salicylic acid, salicylic acid], the “time of healing / effectiveness in comparison of therapies” value in the data set on cheloid was “not as effective as the therapy with the present composition”.
